Tests used:
[1] = molecular target: AQ variant of truncated human STING protein, amino acids 155-379 (Homo sapiens (Human), UniProt Q86WV6, G230A/H232R/R293Q); test: Human AQ STING [3H] 2′,3′-cGAMP scintillation proximity competition binding assay; conditions: read-out: Human AQ Binding IC50
Description: A human STING [^3H] 2′,3′-cGAMP scintillation proximity competition binding assay was utilized to detect binding of compounds to STING protein. […] The protein encoding plasmid contained a HIS tag, followed by an Avi tag and then a SUMO tag, which were followed by the STING coding sequence within the pET-28a (+) vector. The plasmid was transfected into a BL21 (DE3)/BirA E. coli co-expression strain. Protein was purified from the bacterial lysate using a cobalt-affinity column. The purified protein was dialyzed against PBS and then 20% glycerol was added prior to storage at −80° C.
2′,3′-cGAMP in assay buffer (50 mM Tris pH 7.5, 100 mM NaCl, 0.1% Fatty Acid Free BSA). Test compounds (2.5 μL) were added to the plate first followed by a 25 μL mixture of STING protein, streptavidin PVT SPA beads (Perkin Elmer) and 10 μL [^3H] 2′,3′-cGAMP. Plates were incubated at room temperature for 18 hrs and read on a Wallac MicroBeta TriLux (Perkin Elmer).

[2] = tested on: STING signaling, RAW-Dual reporter cells; test: Measurement of mouse IFN-β (ELISA); format: cell-based
Description: Mouse Interferon-β (IFN-β) in the supernatants of murine macrophages treated with STING activators was quantified using sandwich enzyme linked immunosorbent assay (ELISA). Briefly, IFN-β binds to plates coated with antibody and detection is accomplished using a detection antibody followed by streptavidin conjugated to horseradish peroxidase. Tetramethyl-benzidine is used as the substrate in this kit (PBL Assay Science). […] In this invention, mouse IFN-β ELISA is used to determine the potency of compound on STING pathway activation in mouse macrophages.
Murine macrophage derived cell line RAW-Dual reporter cells (Invivogen) were used to measure the IFN-β produced by STING signaling activation. Briefly, 20,000 cells in 27 μL were seeded into tissue culture treated 384-well plate that contained 3 μL of test compound. Cells were incubated at 37° C., in a 5% CO2 incubator for 5.5 hours. Supernatants from treated cells were diluted 20-fold and prior to measurement of IFN-β levels using ELISA kit (PBL Assay Science). 100 μL of diluted sample was added to ELISA plate. Plates were incubated at RT for 1 hour with shaking at 650 rpm. Post incubation, samples were aspirated from wells and the wells were washed 4 times. Diluted antibody (50 μL) was added to plates and incubated at RT for 30 minutes with shaking, followed by aspiration of antibody and 4× washes. Diluted HRP (horseradish peroxidase) solution (50 μL) was added and incubated for 10 minutes, followed by aspiration of the solution and 4× wash steps. After the final wash steps, plates were incubated with 100 μL of TMB (tetramethyl benzidine) substrate for 10 minutes, followed by addition of 100 μL of stop solution and plates were read on Envision plate reader for optical density.

[3] = tested on: STING pathway, THP1 cells; test: Human IFN-α/β induction assay (THP1 supernatants on HEK-Blue IFN-α/β reporter cells); format: cell-based; conditions: THP1 cells 5 hrs, HEK-Blue reporter cells 24 hrs
Description: Genetically engineered human type-1 Interferons (IFN-α/β) sensor cells-HEK Blue™ IFNα/β cells (Invivogen) were employed to measure the type-1 IFNs produced by THP1 cells that are treated with activators of STING. The human embryonic (HEK) Blue™ cells are specially designed to monitor the activation of JAK/STAT pathway induced by type 1 IFNs. Briefly, THP1 cells are treated with compounds for 5 hrs. In the second step, supernatants of THP1 cells are transferred to HEK Blue™ IFNα/β reporter cells and incubated for 24 hrs. The secreted embryonic alkaline phosphatase (SEAP) activity in the supernatants of HEK blue IFNα/3 reporter cells is measured and used to determine the quantities of IFNs.
HEK-Blue IFN-α/β reporter cells (Invivogen) were used to measure the secretion of IFN-α/β into culture supernatants of THP1 cells following STING pathway activation. In the first step, THP1 cells were cultured in presence of STING activators for 5 hrs at 37° C., in a 5% CO2 tissue culture incubator, which facilitates the release of IFN-α/β into the supernatants. In the second step, cell supernatants from THP1 cells were transferred to HEK-Blue IFN-α/β reporter cells and incubated at 37° C., in a 5% CO2 incubator for 24 hrs. HEK-Blue IFN-α/β reporter cells are specifically designed to monitor the activation of JAK-STAT pathway activation by type 1 IFNs. These cells express a secreted embryonic alkaline phosphatase (SEAP) reporter gene under the control of ISG54 promoter, which is a well-known interferon stimulatory gene activated by type 1 IFNs. Upon IFN-α/β stimulation, HEK-Blue IFN-α/β reporter cells activate the JAK-STAT pathway and subsequently the expression of the reporter gene. SEAP which is secreted in the supernatant is easily detectable using alkaline phosphatase detection medium (Quanti-Blue reagent from Invivogen).
These assays were run by adding 2 μL of compound stock solution to tissue culture treated 384-well plates with electronic pipettes. Compounds were diluted in autoclaved sterile water, initially spotted on the intermediate dilution plate and then to the assay plate. […]

[4] = tested on: CT-26 tumor; test: CT-26 tumor bearing mice, intra-tumoral treatment and re-challenge; conditions: 50 μg intra-tumoral Days 0, 3, 7

Chain of AQ variant of truncated human STING protein, amino acids 155-379 (Q86WV6 155-379 G230A/H232R/R293Q): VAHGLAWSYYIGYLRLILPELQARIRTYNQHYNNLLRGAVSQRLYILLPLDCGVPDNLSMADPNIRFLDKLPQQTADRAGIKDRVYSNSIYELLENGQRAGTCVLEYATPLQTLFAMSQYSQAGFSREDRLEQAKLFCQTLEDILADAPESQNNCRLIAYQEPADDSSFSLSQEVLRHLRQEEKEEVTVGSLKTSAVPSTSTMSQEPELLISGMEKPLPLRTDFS

Q: What does the source list for `Nc1nc2c(ncn2[C@@H]2O[C@@H]3COP(=O)(S)OCCn4c(nc5cncnc54)COP(=O)(S)O[C@@H]2[C@@H]3F)c(=O)[nH]1` (single isomer, unassigned) [Example 1D]?
A: IC50 [1]: < 1 µM; EC50 [2]: > 5 µM; EC50 ([3]; Homo sapiens, THP-1): < 5 µM

Q: Which results are given for `Nc1ncnc2c1ncn2[C@@H]1O[C@@H]2COP(=O)([S-])O[C@@H]3[C@H](O)[C@@H](COP([O-])(=S)O[C@H]2[C@H]1O)O[C@H]3n1cnc2c(N)ncnc21.[Na+].[Na+]` (stereo partly drawn) [ADU-S100, reference compound]?
A: Number of surviving mice ([4]; Day 0): 10/10; Number of surviving mice ([4]; Day 3): 10/10; Number of surviving mice ([4]; Day 7): 10/10; Number of surviving mice ([4]; Day 10): 10/10; Number of surviving mice ([4]; Day 14): 10/10; Number of surviving mice ([4]; Day 17): 10/10; Number of surviving mice ([4]; Day 20): 10/10; Number of surviving mice ([4]; Day 23): 7/10; Number of surviving mice ([4]; Day 35): 1/10; animals with complete regression of the tumors ([4]; by Day 30): None; EC50 [2]: > 5 µM; EC50 [3]: > 10 µM

From US11161864B2, “Sting agonists” (Venenum Biodesign, LLC, priority 2018, dated 2021)
